For series [1] the following is noted: 24 h period following LPS.
Description: LPS-induced anorexia. C3H/HeN male mice were singly housed and acclimatized for at least 2 days to cages with grid bottoms prior to treatments. Body weight and food intake was measured daily until a stable baseline was obtained. Mice received either vehicle (phosphate buffered saline; PBS) or 100 μg of lipopolysaccharide (Escherichia coli 0111 :B4, Sigma, St. Louis, Mo.) in PBS via shallow midline, mid-abdominal, intraperitoneal injection. […] To determine the effect of COX inhibition, mice were pretreated with either vehicle (phosphate buffered saline plus 1% Tween 80), or vehicle plus agent 30 minutes prior to i.p. injection of LPS or vehicle, and re-dosed at 8 and 24 hrs after LPS. Cyclooxygenase inhibitors were administered via gavage using olive-tipped needles.
Series [2] relates to leptin. The series is described as follows: Plasma leptin after LPS (ELISA). In kind it is in vivo, mice (C3H/HeN). The settings on record: after LPS (3 h and 16 h). From the text:
(§1) Serum corticosterone, leptin, and IL-6 measurements.
Background: In an ELISA, binding on a coated surface is turned into a signal by an enzyme label.

Series [3] is described as follows: LPS-induced weight loss. In kind it is in vivo, mice (C3H/HeN). The procedure: (§2) Animal housing. […] For pharmacological inhibitor studies, male C3H/HeN mice (Harlan Sprague Dawley, Inc., Indianapolis, Ind.) 10-12 wks of age were evaluated according to the method of Gross et al., Am J Physiol 278: R1415-23, 2000. See also Silver et al., J Clin Invest 95: 725-31, 1995. […] Control mice designated “WT” for the COX KO experiments were WT and heterozygous littermates arising from the COX-2 heterozygous matings. All mouse protocols were in accordance with NIH guidelines and approved by the Animal Care and Use Committee of Washington University School of Medicine.

Series [4] deals with CRH mRNA. The series is described as follows: Hypothalamic in situ mRNA hybridization, CRH. In kind it is in vivo, mice (C3H/HeN). The settings on record: Compound 1/LPS group; 16 h after LPS with food withdrawal. The procedure: Hypothalamic in situ mRNA hybridization. […] After 24 h immersion in 4% paraformaldehyde, hypothalami were cryoprotected in 10% sucrose in DEPC D-PBS. Samples were embedded in OCT (Sakura Finetek USA, Inc., Torrance, Calif.), cut into 10 micron sections on a cryostat, and thaw mounted onto Superfrost plus slides (Fisher Scientific, Pittsburgh, Pa.). In situ hybridization utilized α-^33P-UTP-labelled 320 base anti-sense riboprobe from the mouse CRH gene or a 511 base anti-sense riboprobe from the rat neuropeptide Y (NPY) cDNA (generously provided by Dr. Steven Sabol, NHLBI, NIH) by methods described (e.g., Muglia et al., J Neurosci 19: 2051-8, 1999). For CRH and NPY mRNA detection, the regions of the hypothalamic paraventicular and arcuate nuclei were determined by Nissl staining and light microscopy. Six sections spanning each nucleus were hybridized to CRH (paraventricular nucleus) or NPY (arcuate nucleus) probes, and the two sections of peak intensity imaged for densitometric analysis. Hybridizing probes were quantitated by exposure of slides to Hyperfilm-βMax (Amersham Life Science, Inc., Arlington Heights, Ill.) with densitometric analysis employing NIH Image Software.

Series [5] has as its system IL-6. The series is described as follows: Plasma IL-6 after LPS (ELISA). In kind it is in vivo, mice (C3H/HeN).
Description: as §1

The conditions of series [6]: mouse, in vivo, 10 mg/kg. The procedure:
as §2

Consider `NS(=O)(=O)c1ccc(-n2nc(C(F)(F)F)cc2-c2ccc(Cl)cc2)cc1` [Compound 1], for which the “hypophagic response after LPS” value in series [1] is “attenuated, but did not completely block the hypophagic response”. The “magnitude of induction of leptin, vehicle/LPS vs. Compound 1/LPS” value in series [2] was “did not differ”. In addition, in series [3] (2 and 3 days after LPS treatment), the “difference in weight loss between LPS-treated Compound 1 and Compound 2 groups” value was “remained significant”. In addition, the “elevation of CRH mRNA in the paraventricular nucleus of the hypothalamus” value in series [4] is reported as “approximately 3 fold”. Moreover, the “magnitude of early induction of plasma IL-6 vs. LPS alone” value in series [5] (3 h after LPS) is on record as “no change”. Moreover, the “sustained increases in plasma IL-6 vs. LPS alone” value in series [5] (16 hours after LPS) was “no change”.
Turning to `COc1ccc(-n2nc(C(F)(F)F)cc2-c2ccc(Cl)cc2)cc1` [Compound 2], the “body weight in comparison to the vehicle/LPS group” value in series [3] (3 days after treatment, 300 μg/dose (10 mg/kg) gavage plus LPS) is “sustained weight reduction”.
On to `COc1ccc2c(c1)c(CC(=O)O)c(C)n2C(=O)c1ccc(Cl)cc1` [indomethacin], for which the “weight loss associated with LPS administration, vs. vehicle/LPS” value in series [3] (100 μg LPS i.p., gavage 30 min before, 8 and 24 h after LPS, indomethacin 150 μg/dose, Compound 1 300 μg/dose) is on record as “tended to reduce the weight loss”. The “change in body weight relative to vehicle-treated control mice” value in series [6] was “no change in body weight”.

Values taken from patent US20030087942A1, “Method for the treatment and prevention of cachexia” (Washington University, priority 2001, published 2003).
